How the values were obtained:
[1] = test system: SK-MEL-28; assay: cells; details: Homo sapiens, SK-MEL-28, 48 h
[2] = test system: HCT-116; details: HCT-116 (Colon); 48 h
[3] = test system: K-562; assay: cells; details: Homo sapiens, K562, 48 h
[4] = test system: SNB-75; assay: cells; details: Homo sapiens, SNB-75, 48 h
[5] = test system: HCC-2998; assay: cells; details: Homo sapiens, HCC 2998, 48 h
[6] = test system: BT-549; details: BT-549 (Breast); 48 h
[7] = test system: RXF393; details: RXF393 (Renal); 48 h
[8] = test system: UO-31; details: UO-31 (Renal); 48 h
[9] = target: purified human HDAC6 (Homo sapiens, UniProt Q9UBN7); assay: Standard fluorescence HDAC assay; type: biochemical; details: purified human enzyme, read-out: IC50 against HDAC6
[10] = test system: SK-MEL-5; assay: cells; details: Homo sapiens, SK-MEL-5, 48 h
[11] = test system: COLO205; assay: cells; details: Homo sapiens, COLO 205, 48 h
[12] = test system: SK-MEL-2; assay: cells; details: Homo sapiens, SK-MEL-2, 48 h
[13] = test system: PC-3; assay: cells; details: Homo sapiens, PC-3, 48 h
[14] = test system: DU-145; assay: cells; details: Homo sapiens, DU-145, 48 h
[15] = test system: MDA-MB-231/ATCC; assay: cells; details: Homo sapiens, MDA-MB-231, 48 h
[16] = test system: COLO205; details: COLO205 (Colon); 48 h
[17] = test system: BT-20; assay: Cell growth measurement; type: cell-based; details: BT-20 (ER-negative, HER2-negative, RA-insensitive)
[18] = test system: HS578T; details: HS578T (Breast); 48 h
[19] = test system: HT29; assay: cells; details: Homo sapiens, HT-29, 48 h
[20] = test system: SkBr3; assay: Cell growth measurement; type: cell-based; details: 10 days of treatment
Protocol: (§1) Finally, the effects of 3 on the growth of several breast cancer cell lines [MCF-7 (ER-positive, HER2-negative, RA-sensitive); SkBr3 (ER-negative, HER2-amplified, RA-sensitive); and the normally RA-insensitive MDA-MB-231 (ER-negative, HER2-negative, RA-insensitive)] was assessed.
(§2) Cell Growth Measurement: Cells were plated at 40 k cells per well (6-well plate) in DMEM 5% FBS-T for all cell lines except for I-IMEC cells which were plated in supplemented MEBM from Clonetics. Cells were treated every 48 hours and media was refreshed every 96 hours. After 10 days of treatment cells were harvested in 0.1N NaOH and growth was quantified by analyzing protein content of lysates with a Lowry assay.

[21] = test system: MDA-MB-231; assay: Cell growth measurement; type: cell-based; details: 10 days of treatment
Protocol: as §1, §2

[22] = test system: MCF-7; assay: Cell growth measurement; type: cell-based; details: 10 days of treatment
Protocol: as §1, §2

[23] = test system: 786-0; details: 786-0 (Renal); 48 h
[24] = test system: EKVX; details: EKVX (Non-Small cell lung cancer); 48 h
[25] = test system: BT-549; assay: cells; details: Homo sapiens, BT-549, 48 h
[26] = test system: SW-620; details: SW-620 (Colon); 48 h
[27] = test system: U251; assay: cells; details: Homo sapiens, U-251, 48 h
[28] = test system: HOP-92; assay: cells; details: Homo sapiens, HOP-92, 48 h
[29] = test system: OVCAR-4; assay: cells; details: Homo sapiens, OVCAR-4, 48 h
[30] = test system: TK-10; assay: cells; details: Homo sapiens, TK-10, 48 h
[31] = test system: U251; details: U251 (CNS); 48 h
[32] = test system: NCI/ADR-RES; details: 48 h
[33] = test system: SN12C; assay: cells; details: Homo sapiens, 48 h
[34] = test system: MOLT-4; details: MOLT-4 (Leukemia); 48 h

Chain of purified human HDAC6 (Q9UBN7 whole entry): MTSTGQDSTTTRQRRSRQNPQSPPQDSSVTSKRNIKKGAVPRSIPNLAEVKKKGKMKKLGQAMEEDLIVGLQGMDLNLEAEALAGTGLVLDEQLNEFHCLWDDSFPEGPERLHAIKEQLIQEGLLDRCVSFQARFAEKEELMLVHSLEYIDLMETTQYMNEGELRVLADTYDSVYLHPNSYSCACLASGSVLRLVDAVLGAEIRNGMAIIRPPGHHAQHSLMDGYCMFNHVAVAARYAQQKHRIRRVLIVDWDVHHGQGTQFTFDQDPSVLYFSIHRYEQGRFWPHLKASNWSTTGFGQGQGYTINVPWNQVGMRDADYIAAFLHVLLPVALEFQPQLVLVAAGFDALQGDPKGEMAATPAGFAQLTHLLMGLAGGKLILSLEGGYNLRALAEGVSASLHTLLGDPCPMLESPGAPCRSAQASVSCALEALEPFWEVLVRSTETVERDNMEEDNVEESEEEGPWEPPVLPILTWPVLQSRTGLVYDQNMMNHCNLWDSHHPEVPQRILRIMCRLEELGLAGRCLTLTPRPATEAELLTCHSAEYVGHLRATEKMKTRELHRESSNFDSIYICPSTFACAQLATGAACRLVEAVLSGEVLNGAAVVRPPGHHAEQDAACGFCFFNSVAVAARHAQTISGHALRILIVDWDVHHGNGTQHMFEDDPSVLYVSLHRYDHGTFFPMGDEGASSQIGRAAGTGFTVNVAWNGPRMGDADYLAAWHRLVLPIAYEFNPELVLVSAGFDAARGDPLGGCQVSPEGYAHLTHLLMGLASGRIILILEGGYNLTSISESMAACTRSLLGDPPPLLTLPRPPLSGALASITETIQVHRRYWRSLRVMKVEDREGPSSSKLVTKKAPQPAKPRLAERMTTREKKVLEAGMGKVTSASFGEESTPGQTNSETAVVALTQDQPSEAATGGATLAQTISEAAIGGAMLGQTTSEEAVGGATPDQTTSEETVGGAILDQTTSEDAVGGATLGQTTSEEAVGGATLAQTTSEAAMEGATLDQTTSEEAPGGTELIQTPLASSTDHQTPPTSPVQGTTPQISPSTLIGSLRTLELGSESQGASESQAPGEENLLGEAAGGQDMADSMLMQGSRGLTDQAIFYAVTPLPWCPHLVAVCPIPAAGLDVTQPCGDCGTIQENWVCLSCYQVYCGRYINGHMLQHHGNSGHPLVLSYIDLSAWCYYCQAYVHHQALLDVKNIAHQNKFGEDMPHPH

CC1(C)CCC(C)(C)c2cc(-c3ccc4cc(C(=O)NO)ccc4c3)ccc21 [hybrid 3]
GI50 [1]: 1810 nM | CC50 ([1]; read-out: LC50): 21700 nM | TGI [2]: 1500 nM | GI50 [3]: 399 nM | CC50 ([3]; read-out: LC50): 5510 nM | GI50 [4]: 1740 nM | CC50 ([4]; read-out: LC50): 24900 nM | GI50 [5]: 1090 nM | CC50 ([5]; read-out: LC50): 5750 nM | TGI [6]: 4810 nM | TGI [7]: 2820 nM | TGI [8]: 1610 nM | IC50 [9]: 148 nM | GI50 [10]: 977 nM | CC50 ([10]; read-out: LC50): 5370 nM | GI50 [11]: 797 nM | CC50 ([11]; read-out: LC50): 6020 nM | GI50 [12]: 2420 nM | CC50 ([12]; read-out: LC50): 33600 nM | GI50 [13]: 1140 nM | CC50 ([13]; read-out: LC50): 21500 nM | GI50 [14]: 622 nM | CC50 ([14]; read-out: LC50): 4680 nM | GI50 [15]: 1200 nM | CC50 ([15]; read-out: LC50): 12000 nM | TGI [16]: 2330 nM | effect on cell growth [17]: active | TGI [18]: 11800 nM | GI50 [19]: 575 nM | CC50 ([19]; read-out: LC50): 7600 nM | effect on cell growth [20]: active | IC50 ([20]; Homo sapiens, SK-BR-3, 240 h): 90 nM | effect on cell growth [21]: active | IC50 ([21]; Homo sapiens, 240 h): 300 nM | effect on cell growth [22]: active | IC50 ([22]; Homo sapiens, MCF7, 240 h): 150 nM | TGI [23]: 2370 nM | TGI [24]: 3430 nM | GI50 [25]: 1420 nM | CC50 ([25]; read-out: LC50): 19700 nM | TGI [26]: 1940 nM | GI50 [27]: 437 nM | CC50 ([27]; read-out: LC50): 4800 nM | GI50 [28]: 1930 nM | CC50 ([28]; read-out: LC50): 27200 nM | GI50 [29]: 533 nM | CC50 ([29]; read-out: LC50): 29100 nM | GI50 [30]: 1100 nM | CC50 ([30]; read-out: LC50): 25000 nM | TGI [31]: 1690 nM | TGI [32]: 1760 nM | GI50 [33]: 1050 nM | CC50 ([33]; read-out: LC50): 5340 nM | TGI [34]: 1460 nM

Reference: patent US20130165520A1, “Hybrid Molecule Having Mixed Retinoic Acid Receptor Agonism and Histone Deacetylase Inhibitory Properties” (priority 2010, published 2013)
